According to patent publication US20190060330A1, “APPLICATION OF 4-HYDROXY SALICYLANILIDE IN PREPARATION OF ANTI-MYELOMA OR ANTI-LYMPHOMA DRUGS” (priority 2016, published 2019):
Where “and” joins values, the source holds several entries; their conditions need not be identical. Equal entries are not always repeated. Entries after “also recorded” stand apart in the source; their conditions may differ.

Key:
H929 cells = assay: Animal experiment for multiple myeloma: subcutaneous H929 tumors in nude mice; format: in vivo, BALB/C nude mice; details: for Tumor volume, individual mice No. 1-4 / Tumor volume, mean: 100 mg/kg per day, caudal vein
Description: (1) Cell line: human multiple myeloma cells (H929 cells) (from ATCC, USA. The cells were passaged and preserved in the applicant's laboratory), were cultured in a 1640 culture medium (containing 10% fetus bovine serum).
(2) Experimental animals: Male BALB/C nude mice (4-6 week old, purchased from Shanghai Sippr-BK laboratory animal Co. Ltd), were housed in an SPF condition (Center Laborotory Animal Room, Shanghai Tenth People's Hospital).
The cells were cultured in 1640 a 1640 culture medium (containing 10% fetus bovine serum, pH 7.2) supplemented with 2 mmol/L glutamine. The resultant was cultured in a incubator at 37° C. under 5% CO2 environment.
The 1640 medium containing 3.5×10^6 H929 cells was injected subcutaneously into the right axilla of the nude mice, and when the tumors grew to a measurable size, the mice were randomly assigned into the control group and the administration group. The nude mice in the administration group were injected through caudal vein with 4-hydroxy salicylanilide at 50 mg/kg and 100 mg/kg per day. The nude mice in the control group were injected with the same volume of solvent (200 μL, 5% DMSO+4% castor oil+91% normal saline). The tumor sizes were measured every two days (measuring the length and width of the tumor, tumor volume=0.5×(width)^2×length). The mice were sacrificed after a 22-day administration and the tumors were taken for taking photos.

OPM2 cells = assay: CCK8 cytotoxicity, OPM2 multiple myeloma cells; format: cell-based; details: Homo sapiens, OPM-2, 72 h
Description: (§1) (1) Cell lines: human multiple myeloma cells (H929 cells, OPM2 cells, U266 cells, OCI-MY5 cells, RPMI 8266 cells) (from ATCC of USA. The cells were passaged and preserved in the applicant's laboratory), were cultured in a 1640 culture medium (containing 10% fetus bovine serum).
(§2) The cells were cultured in 1640 medium (containing 10% fetal bovine serum, pH 7.2) supplemented with 2 mmol/L glutamine. The cells were cultured in a cell culture incubator at 37° C., 5% CO2.
(§3) A single-cell suspension of human multiple myeloma cells (H929 cells, OPM2 cells, U266 cells, OCI-MY5 cells, RPMI 8266 cells) was taken for cell counting, and the cell concentration was adjusted to 2×10^5 cells/mL. 95 μL of the above cell suspension was added into each well of a 96-well culture plate, and then 5 μL of the drug prepared with the medium was added at different concentrations, while the same volume of culture medium was added in the control group. Three parallel wells were set in each group. The plate was subjected to continuous culture for 72 h. 2 hours before the end of the culture, 10 μL of CCK8 reagent was added into each well, and the plate was continued to culture in a CO2 incubator. After 2 hours, the OD value of each well at 450 nm was detected by an automatic microplate reader. […]

OCI-LY8 cells = assay: CCK8 cytotoxicity, OCI-LY8 lymphoma cells; format: cell-based; details: Homo sapiens, 72 h
Description: (§4) A single-cell suspension of human multiple myeloma cells (H929 cells, OPM2 cells, U266 cells, OCI-MY5 cells, RPMI 8266 cells) was taken for cell counting, and the cell concentration was adjusted to 2×10^5 cells/mL. 95 μL of the above cell suspension was added into each well of a 96-well culture plate, and then 5 μL of the drug prepared with the medium was added at different concentrations, while the same volume of culture medium was added in the control group. Three parallel wells were set in each group. The plate was subjected to continuous culture for 72 h. 2 hours before the end of the culture, 10 μL of CCK8 reagent was added into each well, and the plate was continued to culture in a CO2 incubator. After 2 hours, the OD value of each well at 450 nm was detected by an automatic microplate reader. Cell viability and inhibition rate were calculated: cell viability (%)=(OD mean of experimental well/OD mean of control well)×100%. Cell inhibition rate (%)=100%−cell viability (%). The fitting function was used to determine the IC50 of the drug concentration when the cell growth was inhibited by 50%. The experiment was in triplicate.
(§5) Cell lines: human lymphoma cells (SUDHL-4 cells, OCI-LY1 cells, OCI-LY8 cells, DB cells, NU-DUL-1 cells, U2932 cells, TMD8 cells)(from ATCC. USA. The cells were passaged and preserved in the applicant's laboratory). IMDM (Gibco Co., USA). […]

[1] = biological target: T1, Ribonucleotide reductase (RR) (Homo sapiens, UniProt P31350); details: shown in studies; cited from earlier work
T1 sequence (P31350 1-389): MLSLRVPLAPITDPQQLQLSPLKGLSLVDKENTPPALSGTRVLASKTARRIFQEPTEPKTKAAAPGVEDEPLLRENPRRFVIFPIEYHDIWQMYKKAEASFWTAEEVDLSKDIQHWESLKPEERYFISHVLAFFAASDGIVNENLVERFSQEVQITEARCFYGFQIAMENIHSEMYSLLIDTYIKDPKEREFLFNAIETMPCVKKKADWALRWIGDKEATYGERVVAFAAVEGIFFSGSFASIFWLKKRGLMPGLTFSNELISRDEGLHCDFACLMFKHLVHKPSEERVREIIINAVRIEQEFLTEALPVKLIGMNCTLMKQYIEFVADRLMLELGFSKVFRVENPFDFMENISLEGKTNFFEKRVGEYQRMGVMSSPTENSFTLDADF

OCI-MY5 cells = assay: CCK8 cytotoxicity, OCI-MY5 multiple myeloma cells; format: cell-based; details: Homo sapiens, 72 h
Description: as §1, §2, §3

RPMI 8266 cells = assay: CCK8 cytotoxicity, RPMI 8266 multiple myeloma cells; format: cell-based; details: Homo sapiens, RPMI8266, 72 h
Description: as §1, §2, §3

U2932 cells = assay: CCK8 cytotoxicity, U2932 lymphoma cells; format: cell-based; details: Homo sapiens, 72 h
Description: as §4, §5

SUDHL-4 cells = assay: CCK8 cytotoxicity, SUDHL-4 lymphoma cells; format: cell-based; details: Homo sapiens, SU-DHL-4, 72 h
Description: as §4, §5

DB cells = assay: CCK8 cytotoxicity, DB lymphoma cells; format: cell-based; details: Homo sapiens, 72 h
Description: as §4, §5

OCI-LY1 cells = assay: CCK8 cytotoxicity, OCI-LY1 lymphoma cells; format: cell-based; details: Homo sapiens, 72 h
Description: as §4, §5

SMILES: O=C(Nc1ccc(O)cc1)c1ccccc1O
- Tumor volume, individual mice No. 1-4 (H929 cells; day 2): 0.12 cm^3 and 0.09 cm^3 and 0.08 cm^3 (2×)
- Tumor volume, mean (H929 cells; day 2): 0.09 cm^3
- Tumor volume, individual mice No. 1-4 (H929 cells; day 4): 0.13 cm^3 (2×) and 0.14 cm^3 and 0.10 cm^3
- Tumor volume, mean (H929 cells; day 4): 0.13 cm^3
- Tumor volume, individual mice No. 1-4 (H929 cells; day 6): 0.17 cm^3 (2×) and 0.15 cm^3 and 0.13 cm^3
- Tumor volume, mean (H929 cells; day 6): 0.16 cm^3
- Tumor volume, individual mice No. 1-4 (H929 cells; day 8): 0.26 cm^3 and 0.20 cm^3 and 0.25 cm^3 and 0.17 cm^3
- Tumor volume, mean (H929 cells; day 8): 0.22 cm^3
- Tumor volume, individual mice No. 1-4 (H929 cells; day 10): 0.39 cm^3 and 0.23 cm^3 (2×) and 0.31 cm^3
- Tumor volume, mean (H929 cells; day 10): 0.29 cm^3
- Tumor volume, individual mice No. 1-4 (H929 cells; day 12): 0.53 cm^3 and 0.31 cm^3 and 0.39 cm^3 and 0.25 cm^3
- Tumor volume, mean (H929 cells; day 12): 0.37 cm^3
- Tumor volume, individual mice No. 1-4 (H929 cells; day 14): 0.77 cm^3 and 0.42 cm^3 and 0.44 cm^3 and 0.27 cm^3
- Tumor volume, mean (H929 cells; day 14): 0.47 cm^3
- Tumor volume, individual mice No. 1-4 (H929 cells; day 16): 0.93 cm^3 and 0.49 cm^3 and 0.50 cm^3 and 0.32 cm^3
- Tumor volume, mean (H929 cells; day 16): 0.56 cm^3
- Tumor volume, individual mice No. 1-4 (H929 cells; day 18): 1.20 cm^3 and 0.57 cm^3 (2×) and 0.31 cm^3
- Tumor volume, mean (H929 cells; day 18): 0.66 cm^3
- Tumor volume, individual mice No. 1-4 (H929 cells; day 20): 1.27 cm^3 and 0.63 cm^3 and 0.65 cm^3 and 0.34 cm^3
- Tumor volume, mean (H929 cells; day 20): 0.72 cm^3
- Tumor volume, individual mice No. 1-4 (H929 cells; day 22): 1.39 cm^3 and 0.71 cm^3 and 0.80 cm^3 and 0.40 cm^3
- Tumor volume, mean (H929 cells; day 22): 0.82 cm^3
- Inhibition of tumor growth in animals (in words) (H929 cells; H929 tumors in nude mice, 50 and 100 mg/kg per day, 22 days, dose-dependent, P<0.01 at day 22): significantly inhibit the tumor growth; also recorded: effective in inhibiting the growth of multiple myeloma
- IC50 (OPM2 cells): 84 µM
- IC50 (OCI-LY8 cells): 76 µM
- Inhibition of Ribonucleotide reductase (in words) [1]: inhibitor
- IC50 (OCI-MY5 cells): 211 µM
- IC50 (RPMI 8266 cells): 170 µM
- IC50 (U2932 cells): 156 µM
- IC50 (SUDHL-4 cells): 73 µM
- IC50 (DB cells): 178 µM
- IC50 (OCI-LY1 cells): 117 µM
